A short description of the data set: Dissolution rate of orlistat powder raw material. Type of data set: physicochemical. How it is done: Orlistat is a drug having a melting point as low as 43° C., and is commercially available in a powder form. The dissolution rate of orlistat undergoing no denaturation under good storage conditions is about 60%. […] In addition, when raw materials of orlistat are exposed to high temperature during transport, the powder particles of orlistat rapidly aggregate. Thereafter, the aggregates remain even when being cooled, causing damage to the dissolution of orlistat.

Take `CCCCCCCCCCC[C@@H](C[C@@H]1OC(=O)[C@H]1CCCCCC)OC(=O)[C@H](CC(C)C)NC=O` [orlistat]: the dissolution rate by setting is: (orlistat raw material exposed to high temperature during transport, particles aggregated) at most 40%; (orlistat undergoing no denaturation under good storage conditions) “about 60%”.

The record behind these values is patent US20080200536A1, “Pharmaceutical Formulation with High Stability and Dissolution and Manufacturing Process” (BORAM PHARM.CO., LTD, priority 2005, published 2008).
